Reference: US11827624B2, “Covalent immune recruiter compounds for immune cell recognition and associated uses” (McMaster University, priority 2020, dated 2023)
pKi: −log10 of the molar value. Where “and” joins values, the source holds several entries; their conditions need not be identical. Equal values may be shown once.

Tested on: humanized anti-DNP SPE7 (mmAb)
Experiment: BLI covalent labeling kinetics assay on IgG Fc capture probes, mmAb
Type: binding
Method: Kinetic assays to characterize the second order rate constant (kinact/KI) describing the CIR+Ab labeling reaction involved incubating increasing concentrations of CIR 3 or CIR 5 with a fixed concentration (75 nM) of anti-DNP mmAb in solution, for different periods of time. PSMA binding to CIR-Ab complexes increases the total mass associated with the probe surface leading to signal increases (nm shift). CIR 3 (500 nM) and 75 nM of either mmAb or mAb (AcroBiosystems Catalog #DNP-M2) was reacted in 1× Kinetics Buffer (ForteBio) for four hours prior to the experiment. IgG Fc capture (ProG) probes from ForteBio were placed in 1× Kinetics Buffer for 20 minutes prior to the experiment for wetting. The experiment was conducted using an Octet Red96 (ForteBio), where the acquisition rate was set to 5 Hz and the temperature was held at 25° C. The plate shaker setting was 1000 RPM. A volume of 250 μL of each solution was loaded onto a black flat-bottom 96-well plate (Grenier). The experiment began by placing the ProG probes in 1×Kinetics Buffer for four minutes to establish a baseline. Next, the probes were placed into the CIR 3 and anti-DNP antibody reaction mixture to load the covalent complex (CIR-Ab) onto the probe. Next, the probes were placed in a solution of 5 mM DNP-glycine competitor in 1×Kinetics Buffer in order to disrupt any non-covalent or non-specific binding. The baseline was re-established by then placing the probes in 1× Kinetics Buffer for 0.5 minutes. To measure PSMA association, the probes were placed in a solution of 500 nM human PSMA protein in 1× Kinetics Buffer for 10 minutes. The probes were then placed in 1×Kinetics Buffer for 10 minutes to measure dissociation. The raw nm shift signal for the association and dissociation step obtained by the Octet Red96 was first baselined to the beginning of the association step (t=0 second) by subtracting the association signal at t=0 from the measured signal at each time point. The Kd was determined by fitting both the association and dissociation curves using the ‘association then dissociation’ binding model in GraphPad Prism 8. The experiment was repeated once for a total of two replicates.
The specific labelling of an antibody by a CIR occurs via a two-step mechanism. In the first step, the CIR binds to the antibody via its ABD and forms a reversible complex. […] This second order rate constant was determined by monitoring covalent product (CIR-Ab) formation as a function of time via BLI using IgG Fc capture probes (note: a non-specific labeling reaction occurs independent of binding to the DNP binding site with any biological nucleophile and follows second order kinetics without saturation). […]

O=C(O)CC[C@H](NC(=O)N[C@@H](CCCCNC(=O)NCCOCCOCCOCCOCCOCCOCCOCCOC(=O)n1cnc(CCNC(=O)CNc2ccc([N+](=O)[O-])cc2[N+](=O)[O-])c1)C(=O)O)C(=O)O [CIR 3]
covalent reaction selectivity at excess CIR (20-fold excess (1.5 μM), mAb and mmAb): high covalent reaction selectivity for the DNP hapten binding site on both mAb and mmAb was observed
Kinact/Kl ^c (mmAb): 12000 ± 1000 M⁻¹ s⁻¹
Kinact^c (mmAb, 75 nM antibody): 4.0 × 10^−4 ± 0 s^−1
pKi (mmAb, read-out: Kl ^c): ~7.52 and 7.52
